Results taken from patent US20150197497A1, “SELECTIVE INHIBITORS OF HISTONE DEACETYLASE ISOFORM 6 AND METHODS THEREOF” (DANA-FARBER CANCER INSTITUTE, INC., priority 2011, published 2015).

How the values were obtained:
[1] = target: T1, HDAC2 (Homo sapiens, UniProt Q92769); experiment: In vitro HDAC enzyme inhibition assay, HDAC2; type: biochemical; settings: for HDAC2/HDAC6 in vitro selectivity: ratio of IC50 for HDAC2 relative to that of HDAC6; for IC50: recombinant full-length HDAC2, substrate MAZ1600 22 μM
T1 construct: Recombinant, full-length HDAC protein (BPS Biosciences) was incubated with fluorophore conjugated substrate; purchased BPS Biosciences
T1 sequence (Q92769 whole entry): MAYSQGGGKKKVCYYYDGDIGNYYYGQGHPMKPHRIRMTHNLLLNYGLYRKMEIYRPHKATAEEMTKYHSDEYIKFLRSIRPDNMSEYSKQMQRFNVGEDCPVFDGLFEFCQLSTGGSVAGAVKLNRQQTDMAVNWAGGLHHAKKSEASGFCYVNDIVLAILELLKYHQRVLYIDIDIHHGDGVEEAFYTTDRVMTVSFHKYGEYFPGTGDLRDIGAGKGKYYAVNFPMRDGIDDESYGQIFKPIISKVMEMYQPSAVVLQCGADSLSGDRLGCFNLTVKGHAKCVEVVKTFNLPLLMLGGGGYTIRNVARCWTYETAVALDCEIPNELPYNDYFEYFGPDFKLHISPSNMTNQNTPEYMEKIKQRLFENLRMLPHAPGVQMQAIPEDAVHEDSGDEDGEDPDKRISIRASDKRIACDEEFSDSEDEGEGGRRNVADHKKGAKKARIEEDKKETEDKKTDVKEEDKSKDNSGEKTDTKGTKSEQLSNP
Description: (§1) In vitro Histone Deacetylase enzyme assays were performed using Class I (isoforms: HDAC1, HDAC2, HDAC3 and HDAC8), class IIa (isoforms: HDAC4, HDAC5, HDAC7 and HDAC9) and class IIb (isoform HDAC6).
(§2) HDAC activities were determined in vitro with an optimized homogenous assay performed in a 384-well plate. Recombinant, full-length HDAC protein (BPS Biosciences) was incubated with fluorophore conjugated substrate, MAZ1600 and MAZ1675, at Km=[S]. […] Reactions were performed in assay buffer (50 mM HEPES, 100 mM KCl, 0.001% Tween-20, 0.05% BSA, 200 μM tris(2-carboxyethyl)phosphine (TCEP), pH 7.4) and followed for fluorogenic release of 7-amino-4-methylcoumarin from substrate upon deacetylase and trypsin enzymatic activity. Fluorescence measurements were obtained every five minutes using a multilabel plate reader and plate-stacker (Envision; Perkin-Elmer). Each plate was analyzed by plate repeat, and the first derivative within the linear range was imported into analytical software (Spotfire DecisionSite and GraphPad Prism). Replicate experimental data from incubations with inhibitor were normalized to controls.

[2] = target: T2, HDAC3 (Homo sapiens, UniProt O15379); experiment: In vitro HDAC enzyme inhibition assay, HDAC3; type: biochemical; settings: for HDAC3/HDAC6 in vitro selectivity: ratio of IC50 for HDAC3 relative to that of HDAC6; for IC50: recombinant full-length HDAC3, substrate MAZ1600 9 μM
T2 construct: Recombinant, full-length HDAC protein (BPS Biosciences) was incubated with fluorophore conjugated substrate; purchased BPS Biosciences
T2 sequence (O15379 whole entry): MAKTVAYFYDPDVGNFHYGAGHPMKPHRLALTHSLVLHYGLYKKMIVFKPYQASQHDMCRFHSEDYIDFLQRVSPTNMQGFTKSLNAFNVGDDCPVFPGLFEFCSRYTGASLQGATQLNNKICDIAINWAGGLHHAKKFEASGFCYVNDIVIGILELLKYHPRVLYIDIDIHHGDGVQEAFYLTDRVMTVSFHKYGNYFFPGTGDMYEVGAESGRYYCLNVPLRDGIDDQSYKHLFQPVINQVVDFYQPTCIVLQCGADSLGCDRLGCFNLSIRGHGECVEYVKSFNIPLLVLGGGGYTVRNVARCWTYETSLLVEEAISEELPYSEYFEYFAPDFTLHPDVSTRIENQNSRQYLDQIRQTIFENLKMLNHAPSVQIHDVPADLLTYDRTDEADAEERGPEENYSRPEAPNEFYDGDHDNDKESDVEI
T2 sequence (Q9Y618 395-489 partner limits assumed): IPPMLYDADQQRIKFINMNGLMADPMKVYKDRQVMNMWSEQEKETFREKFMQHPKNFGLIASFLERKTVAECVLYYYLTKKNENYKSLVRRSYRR
Description: as §1, §2

[3] = target: T3, HDAC7 (Homo sapiens, UniProt Q8WUI4); experiment: In vitro HDAC enzyme inhibition assay, HDAC7; type: biochemical; settings: for HDAC7/HDAC6 in vitro selectivity: ratio of IC50 for HDAC7 relative to that of HDAC6; for IC50: recombinant full-length HDAC7, substrate MAZ1675 22 μM
T3 construct: Recombinant, full-length HDAC protein (BPS Biosciences) was incubated with fluorophore conjugated substrate; purchased BPS Biosciences
T3 sequence (Q8WUI4 1-952): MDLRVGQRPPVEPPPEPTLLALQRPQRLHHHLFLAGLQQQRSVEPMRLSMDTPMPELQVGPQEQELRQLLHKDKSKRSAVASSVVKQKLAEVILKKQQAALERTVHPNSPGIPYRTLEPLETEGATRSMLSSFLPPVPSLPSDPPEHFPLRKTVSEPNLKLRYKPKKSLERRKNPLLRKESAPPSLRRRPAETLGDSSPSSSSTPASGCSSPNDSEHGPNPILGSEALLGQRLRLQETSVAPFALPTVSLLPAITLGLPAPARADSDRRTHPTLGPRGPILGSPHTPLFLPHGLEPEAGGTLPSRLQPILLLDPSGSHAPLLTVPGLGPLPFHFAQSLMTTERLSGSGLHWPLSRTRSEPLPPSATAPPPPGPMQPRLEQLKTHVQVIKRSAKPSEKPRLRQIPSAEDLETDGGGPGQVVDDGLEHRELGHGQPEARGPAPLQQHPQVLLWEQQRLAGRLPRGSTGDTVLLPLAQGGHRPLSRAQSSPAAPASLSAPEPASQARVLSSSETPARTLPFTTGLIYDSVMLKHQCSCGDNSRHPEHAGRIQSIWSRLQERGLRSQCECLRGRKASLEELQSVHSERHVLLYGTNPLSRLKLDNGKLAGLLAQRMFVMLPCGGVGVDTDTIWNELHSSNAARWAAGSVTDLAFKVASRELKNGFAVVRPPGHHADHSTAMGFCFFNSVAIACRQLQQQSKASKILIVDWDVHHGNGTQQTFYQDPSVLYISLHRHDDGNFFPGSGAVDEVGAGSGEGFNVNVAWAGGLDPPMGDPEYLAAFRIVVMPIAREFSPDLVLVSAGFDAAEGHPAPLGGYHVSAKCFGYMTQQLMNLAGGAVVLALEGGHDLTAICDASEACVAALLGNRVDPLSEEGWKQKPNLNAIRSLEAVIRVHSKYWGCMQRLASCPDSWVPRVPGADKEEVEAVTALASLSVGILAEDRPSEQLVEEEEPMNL
Description: as §1, §2

[4] = target: T4, HDAC8 (Homo sapiens, UniProt Q9BY41); experiment: In vitro HDAC enzyme inhibition assay, HDAC8; type: biochemical; settings: for HDAC8/HDAC6 in vitro selectivity: ratio of IC50 for HDAC8 relative to that of HDAC6; for IC50: recombinant full-length HDAC8, substrate MAZ1675 282 μM
T4 construct: Recombinant, full-length HDAC protein (BPS Biosciences) was incubated with fluorophore conjugated substrate; purchased BPS Biosciences
T4 sequence (Q9BY41 1-377): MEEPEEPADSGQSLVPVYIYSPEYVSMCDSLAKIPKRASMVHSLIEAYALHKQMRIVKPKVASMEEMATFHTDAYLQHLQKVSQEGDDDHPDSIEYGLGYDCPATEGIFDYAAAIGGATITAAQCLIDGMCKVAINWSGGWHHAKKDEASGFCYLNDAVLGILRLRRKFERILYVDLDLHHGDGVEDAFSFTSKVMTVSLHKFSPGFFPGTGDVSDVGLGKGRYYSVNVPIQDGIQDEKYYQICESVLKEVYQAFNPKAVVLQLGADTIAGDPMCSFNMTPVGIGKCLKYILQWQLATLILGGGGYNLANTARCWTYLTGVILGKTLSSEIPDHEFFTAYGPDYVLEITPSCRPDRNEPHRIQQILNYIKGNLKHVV
Description: as §1, §2

[5] = target: T5, HDAC9 (Homo sapiens, UniProt Q9UKV0); experiment: In vitro HDAC enzyme inhibition assay, HDAC9; type: biochemical; settings: for HDAC9/HDAC6 in vitro selectivity: ratio of IC50 for HDAC9 relative to that of HDAC6; for IC50: recombinant full-length HDAC9, substrate MAZ1675 26 μM; for selectivity toward HDAC6 compared to HDAC9 (in words): tested in vitro
T5 construct: Recombinant, full-length HDAC protein (BPS Biosciences) was incubated with fluorophore conjugated substrate; purchased BPS Biosciences
T5 sequence (Q9UKV0 whole entry): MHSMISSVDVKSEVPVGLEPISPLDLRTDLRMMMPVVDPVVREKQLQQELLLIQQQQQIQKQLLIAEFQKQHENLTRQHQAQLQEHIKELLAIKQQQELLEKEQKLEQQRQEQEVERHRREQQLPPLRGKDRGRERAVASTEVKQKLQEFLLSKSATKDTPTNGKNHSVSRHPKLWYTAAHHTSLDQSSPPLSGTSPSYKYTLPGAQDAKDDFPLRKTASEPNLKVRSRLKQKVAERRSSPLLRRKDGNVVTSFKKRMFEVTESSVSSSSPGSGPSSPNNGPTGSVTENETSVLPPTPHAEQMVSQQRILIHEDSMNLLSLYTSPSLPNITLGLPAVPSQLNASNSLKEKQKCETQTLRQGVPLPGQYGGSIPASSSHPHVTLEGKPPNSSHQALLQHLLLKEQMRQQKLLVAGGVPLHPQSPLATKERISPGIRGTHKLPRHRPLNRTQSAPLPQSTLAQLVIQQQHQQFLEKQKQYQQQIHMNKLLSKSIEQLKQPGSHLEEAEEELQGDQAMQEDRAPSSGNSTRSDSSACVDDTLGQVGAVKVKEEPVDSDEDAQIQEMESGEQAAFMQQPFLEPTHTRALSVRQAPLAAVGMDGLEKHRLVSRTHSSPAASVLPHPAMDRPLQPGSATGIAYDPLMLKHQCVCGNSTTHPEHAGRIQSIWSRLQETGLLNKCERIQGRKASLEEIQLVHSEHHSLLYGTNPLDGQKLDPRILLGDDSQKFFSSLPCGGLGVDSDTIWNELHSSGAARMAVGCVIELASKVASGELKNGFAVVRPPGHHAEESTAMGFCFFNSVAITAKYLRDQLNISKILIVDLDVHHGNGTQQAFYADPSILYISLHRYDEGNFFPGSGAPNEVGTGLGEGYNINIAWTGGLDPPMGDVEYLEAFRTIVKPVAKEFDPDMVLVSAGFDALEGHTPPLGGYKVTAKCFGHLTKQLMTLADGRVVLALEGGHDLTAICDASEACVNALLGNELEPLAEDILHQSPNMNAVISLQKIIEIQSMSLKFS
Description: as §1, §2

[6] = tested on: acetylated tubulin; experiment: High-content image analysis of induction of acetylated tubulin in A549 cells; settings: for EC50: Homo sapiens, A549, 8 h, read-out: EC50 for half-maximal induction of acetylated tubulin (AcTubulin); for AcHistone/AcTubulin in cell selectivity toward HDAC6: ratio of EC50 acetylated histone to EC50 acetylated tubulin, A549 cells
Description: Cells were treated with each test HDACi compound with an automated pin transfer instrument (Janus, Perkin Elmer) and incubated for 8 hours. […] Fixation solution was aspirated and 90 μL of washing solution (0.1% Triton X-100 in PBS) was added prior to 10 minute incubation at 4° C. Washing solution was aspirated and cells were incubated at 4° C. for about 1 hour in blocking solution (0.1% Triton X-100+2% BSA in PBS). Washing solution was aspirated, and cells were incubated for about 1 hour at 4° C. in primary antibody for acetylated-tubulin (Sigma T7451) and acetylated-histone (Cell Signaling #9441L) at a 1:1000 dilution in blocking solution. Primary antibody solution was aspirated, and cells were washed three times in 90 μL of washing solution. […] Secondary antibody and nuclear staining solution was aspirated and cells were washed three times in 90 μL of washing solution. After the third wash, 50 μL of PBS was added to each well. Image acquisition was done on a high content imaging microscope (ImageXpress Micro, Molecular Devices), and image analysis (MetaXpress, Molecular Devices) was performed to obtain average acetylated-tubulin and acetylated-histone signal per cell based on treatment. Replicate experimental data from incubations with inhibitor were normalized to DMSO controls.

SMILES | HDAC2/HDAC6 in vitro selectivity [1] | IC50 [1] [nM] | HDAC3/HDAC6 in vitro selectivity [2] | IC50 [2] [nM] | HDAC7/HDAC6 in vitro selectivity [3] | IC50 [3] [nM] | HDAC8/HDAC6 in vitro selectivity [4] | IC50 [4] [nM] | HDAC9/HDAC6 in vitro selectivity [5] | IC50 [5] [nM] | EC50 [6] [nM] | selectivity toward HDAC6 compared to HDAC9 (in words) [5] | AcHistone/AcTubulin in cell selectivity toward HDAC6 [6] | selectivity toward HDAC6 compared to HDAC7 (in words) ([3]; tested in vitro) | selectivity toward HDAC6 compared to HDAC8 (in words) ([4]; tested in vitro)
O=C(NO)c1ccc(Cn2c(C(F)(F)F)nc3cc(F)ccc32)cc1 [A3, 4-((5-fluoro-2-(trifluoromethyl)-1H-benzo[d]imidazol-1-yl)methyl)-N-hydroxybenzamide] | 844 | 484 | 3126 | 1790 | 484 | 278 | 2540 | 1460 | 2127 | 1220 | 77.3 |  | 7.664 |  | 
O=C(NO)c1ccc(Cn2cnc3cc(F)ccc32)cc1 [A9, 4-((5-fluoro-1H-benzo[d]imidazol-1-yl)methyl)-N-hydroxybenzamide] | 3132 | 208 | 9140 | 606 | 4925 | 327 | 12348 | 819 | 32978 | 2190 | 132 | exceptionally high selectivity (Inhibitors with in vitro selectivity values for HDAC6 of at least 30,000 are considered to have exceptionally high selectivity toward HDAC6) | 0.4765 |  | 

Now those with a lower IC50 [1], led by results:

HDAC2/HDAC6 in vitro selectivity [1] | IC50 [1] [nM] | HDAC3/HDAC6 in vitro selectivity [2] | IC50 [2] [nM] | HDAC7/HDAC6 in vitro selectivity [3] | IC50 [3] [nM] | HDAC8/HDAC6 in vitro selectivity [4] | IC50 [4] [nM] | HDAC9/HDAC6 in vitro selectivity [5] | IC50 [5] [nM] | EC50 [6] [nM] | SMILES | selectivity toward HDAC6 compared to HDAC9 (in words) [5] | AcHistone/AcTubulin in cell selectivity toward HDAC6 [6] | selectivity toward HDAC6 compared to HDAC7 (in words) ([3]; tested in vitro) | selectivity toward HDAC6 compared to HDAC8 (in words) ([4]; tested in vitro)
1601 | 26.7 | 3936 | 65.6 | 4265 | 71.1 | 18285 | 305 | 61100 | 1020 | 174 | O=C(NO)c1ccc(Cn2cnc3cc(Br)ccc32)cc1 [A11, 4-((5-bromo-1H-benzo[d]imidazol-1-yl)methyl)-N-hydroxybenzamide] | exceptionally high selectivity (Inhibitors with in vitro selectivity values for HDAC6 of at least 30,000 are considered to have exceptionally high selectivity toward HDAC6) | 11.31 |  | 
6974 | 101 | 14575 | 212 | 30509 | 443 | 46328 | 673 | 155186 | 2250 | 89.4 | O=C(NO)c1ccc(Cn2c(=O)[nH]c3ccccc32)cc1 [B1, N-hydroxy-4-((2-oxo-2,3-dihydro-1H-benzo[d]imidazol-1-yl)methyl)benzamide] | exceptionally high selectivity (Inhibitors with in vitro selectivity values for HDAC6 of at least 30,000 are considered to have exceptionally high selectivity toward HDAC6) | 2.941 | exceptionally high selectivity (Inhibitors with in vitro selectivity values for HDAC6 of at least 30,000 are considered to have exceptionally high selectivity toward HDAC6) | exceptionally high selectivity (Inhibitors with in vitro selectivity values for HDAC6 of at least 30,000 are considered to have exceptionally high selectivity toward HDAC6)
1364 | 94.1 | 3046 | 210 | 4029 | 278 | 7524 | 519 | 17278 | 1190 | 188 | O=C(NO)c1ccc(Cn2cnc3cc(Cl)ccc32)cc1 [A10, 4-((5-chloro-1H-benzo[d]imidazol-1-yl)methyl)-N-hydroxybenzamide] |  | 4.787 |  | 
